Test results from patent publication US4594425A, “Heterocyclic compounds as antiallergic agents” (American Home Products Corporation, priority 1984, dated 1986).

Legend:
[1] = system: synthesis of 5-HETE by rat glycogen-elicited polymorphonuclear leukocytes (lipoxygenase); experiment: inhibition of 5-HETE synthesis by rat glycogen-elicited polymorphonuclear leukocytes; assay type: cell-based, rat (Wistar); settings: Leukocyte; rat PMN, A23187 10 μM, [14C] arachidonic acid, 37° C.; read-out: 50% Inhibitory Concentration (IC50) 5-HETE
Description: (§1) This is especially true with respect to 5,12-diHETE, which is also denoted as LTB4 [see Ford-Hitchinson, J. Roy. Soc. Med., 74, 831 (1981)]. The assay of this Example measures the ability of the compounds of the invention to inhibit the synthesis of 5-HETE and LTB4 by rat glycogen-elicited polymorphonuclear leukocytes.
(§2) The assay is carried out as follows:
(§3) Peritoneal PMN are obtained from female Wistar rats (150-250 g) that received an i.p. injection of 6% glycogen (10 ml). After 24 hours, rats are killed by CO2 asphyxiation and peritoneal cells are harvested by peritoneal lavage using Ca^++ and Mg^++ free Hanks' balanced salt solution (HBSS). The peritoneal exudate is centrifuged at 400 g for 10 minutes. After centrifugation, the lavaged fluid is removed and the cell pellet is resuspended in HBSS containing Ca^++ and Mg^++ and 10 mM L-cysteine at a concentration of 2×10^7 cells/ml. To 1 ml portions of cell suspension, test drugs or vehicle are added and incubated at 37° C. for 10 minutes. Following this preincubation, the calcium ionophore (10 μM), A23187, is added together with 0.5 μCi [^14 C] arachidonic acid and further incubated for 10 minutes. The reaction is stopped by the addition of ice cold water (3 ml) and acidifying to pH 3.5. Lipoxygenase products are then extracted twice into diethyl ether. The pooled ether extracts are evaporated to dryness under nitrogen and the residue is redissolved in a small volume of methanol and spotted on aluminum backed pre-coated thin layer chromatographic plates. The samples are then co-chromatographed with authentic reference 5-HETE, 12-HETE and 5,12-diHETE in the solvent system-hexane:ether:acetic acid (50:50:3). After chromatography, the areas associated with 5-HETE and 5,12-diHETE standards are identified by autoradiography, cut out and quantitated by liquid scintillation.
(§4) Results are expressed as % inhibition of [^14 C]5-HETE and [^14 C]LTB4 (5,12-HETE) synthesis. [formula]
(§5) Testing compounds of the invention in this assay and using the antioxident 3-amino-1-[m-(trifluoromethyl)phenyl]-2-pyrazoline (BW755C) as a standard, the following results are obtained.

[2] = system: synthesis of LTB4 by rat glycogen-elicited polymorphonuclear leukocytes (lipoxygenase); experiment: inhibition of LTB4 (5,12-diHETE) synthesis by rat glycogen-elicited polymorphonuclear leukocytes; assay type: cell-based, rat (Wistar); settings: Leukocyte; rat PMN, A23187 10 μM, [14C] arachidonic acid, 37° C.; read-out: 50% Inhibitory Concentration (IC50) LTB4
Description: as §1, §2, §3, §4, §5

[3] = system: ovalbumin induced bronchospasm mediated by endogenous products of the lipoxygenase oxidation of arachidonic acid; experiment: in vivo inhibition of ovalbumin induced bronchospasm in sensitized guinea pigs (endogenous mediators); design: species or system guinea pig (male Hartley); settings: 50 mg/kg intraduodenal, 10 minutes before ovalbumin challenge, average of 6 experiments
[4] = system: LTD4 induced bronchoconstriction; experiment: in vivo inhibition of bronchospasm induced in guinea pigs by exogenously administered LTD4; design: species or system guinea pig (male Hartley); settings: 50 mg/kg intraduodenal, 10 minutes before LTD4, average of 6 experiments
Description: The assay of this Example measures the in vivo ability of the compounds of the invention to inhibit the bronchospasm induced in guinea pigs by the exogenously administered leukotrienes C4 and/or D4. This assay is essentially a measure of the SRS-A antagonist properties of the compounds tested.
This assay is carried out as follows:
Male Hartley strain guinea pigs (350-600 g) are anesthetized with pentobarbital sodium (50 mg/kg, i.p.). The jugular vein is cannulated for injection of drugs and the carotid artery for monitoring blood prerssure. The trachea is cannulated for artificial ventilation by a miniature Starling pump and for indirect measurement of respiratory volume changes as described infra. Additional pentobarbital sodium (15 mg/kg, i.v.) is administered to arrest spontaneous respiration. Submaximal bronchoconstrictor responses are established in control animals by varying the dose-levels of leukotriene. Intravenous dose-levels of LTC4 range from 1 to 2 μg/kg and for LTD4 the range is from 0.3 to 1 μg/kg. The aerosol bronchoprovocation dose for LTC4 is generated from 1.6 μM solution and for LTD4 from a 2.0 μM solution.
Test drugs are administered either intravenously, by aerosol or orally at 1 or 10 minutes before induction of bronchospasm by administration of either LTC4 or LTD4 at the predetermined dose-levels. Aerosols of soluble drugs or leukotrienes are produced in-line for 10 seconds only by actuation of an ultrasonic nebulizer (Monaghan). Aerosolized drug dosage is expressed in terms of solution concentration and by a fixed aerosol exposure time (approximately 10 seconds). Control animals receive saline in place of drug.
Respiratory volume changes are determined by a calibrated piston whose travel is recorded, via a linear transducer, on a Beckman Dynograph recorder. Maximal bronchoconstrictor volume is determined by clamping off the trachea at the end of the experiment. Overflow volumes at 3 and 5 minutes are obtained from the recorded charts.
The overflow volume at 3 and 5 minutes is expressed as a percentage of maximal bronchoconstriction. Combined group values are used from each of these time intervals to determine the inhibitory effect of drugs. [formula] Students t-test for unpaired data is used to determine statistical significance. Dose response curves are generated and ED50 doses are interpolated from the regression lines.
Results for compounds of the invention in this assay, using LTD4 for induction of bronchospasm, are given below: […]

Row | Structure (SMILES) | IC50 [1] | IC50 [2] | % Inhibition (Statistical Average), Overflow Volume at 3 min. [3] | % Inhibition (Statistical Average), Overflow Volume at 5 min. [3] | % Inhibition (Statistical Average), Overflow Volume at 3 min. [4] | % Inhibition (Statistical Average), Overflow Volume at 5 min. [4]
1 | COC(=O)CCC(=O)Nc1cccc(OCc2cc3ccccc3o2)c1 [Example 3, 4-[[3-[(2-benzofuranyl)methoxy]phenyl]amino]-4-oxobutanoic acid, methyl ester] | 17.9 µM | 27.3 µM |  |  |  | 
2 | COC(=O)CCC(=O)Nc1cccc(OCc2nc3ccccc3s2)c1 [Example 1, 4-[[3-[(2-benzthiazolyl)methoxy]phenyl]amino]-4-oxobutanoic acid, methyl ester] | 15.7 µM | 26 µM | 68% | 49% | 33% | 41%
3 | COC(=O)CC(=O)Nc1cccc(OCc2nc3ccccc3n2C)c1 [Example 2d, 3-[[3-[(1-methyl-2-benzimidazolyl)methoxy]phenyl]amino]-3-oxopropanoic acid, methyl ester] |  |  |  |  | 62% | 59%
4 | COC(=O)CCC(=O)Nc1cccc(OCc2nc3ccccc3n2C)c1 [Example 2b, 4-[[3-[(1-methyl-2-benzimidazolyl)methoxy]phenyl]amino]-4-oxobutanoic acid, methyl ester] |  |  | 54% | 49% | 82% | 82%
5 | NC1=NN(c2cccc(C(F)(F)F)c2)CC1 [BW755C, 3-amino-1-[m-(trifluoromethyl)phenyl]-2-pyrazoline, reference compound] | 43 µM | 30 µM |  |  |  | 
6 | COC(=O)CCC(=O)N(O)c1cccc(OCc2nc3ccccc3s2)c1 [Example 6, 4-[[3-[(2-benzthiazolyl)methoxy]phenyl]hydroxylamino]-4-oxobutanoic acid, methyl ester] | 0.36 µM | 0.49 µM |  |  | 78% | 78%
7 | COC(=O)CC(=O)Nc1cccc(OCc2nc3ccccc3s2)c1 [Example 2c, 3-[[3-[(2-benzthiazolyl)methoxy]phenyl]amino]-3-oxopropanoic acid, methyl ester] |  |  |  |  | 77% | 76%
8 | COC(=O)CCC(=O)Nc1cccc(OCc2nc3ccccc3o2)c1 [Example 2a, 4-[[3-[(2-benzoxazolyl)methoxy]phenyl]amino]-4-oxobutanoic acid, methyl ester] | 69.7 µM | 65.5 µM |  |  |  | 
